Test results taken from patent publication US7846928B2, “Substituted pyrazolopyridines and salts thereof, pharmaceutical compositions comprising same, methods of preparing same and uses of same” (Bayer Schering Pharma AG, priority 2006, dated 2010).

target: Tie2 (Homo sapiens, UniProt Q02763); assay: Tie-2-Kinase HTRF-Assay without kinase preactivation (assay 2); format: biochemical; parameters: fusion protein of GST and the intracellular domains of Tie-2; GST; made in house; host or cells: insect cells (Hi-5); conditions: GST-Tie-2 without preactivation, 10 μM ATP; pIC50 = -log IC50 molar
Sequence (Q02763 770-1124 limits assumed): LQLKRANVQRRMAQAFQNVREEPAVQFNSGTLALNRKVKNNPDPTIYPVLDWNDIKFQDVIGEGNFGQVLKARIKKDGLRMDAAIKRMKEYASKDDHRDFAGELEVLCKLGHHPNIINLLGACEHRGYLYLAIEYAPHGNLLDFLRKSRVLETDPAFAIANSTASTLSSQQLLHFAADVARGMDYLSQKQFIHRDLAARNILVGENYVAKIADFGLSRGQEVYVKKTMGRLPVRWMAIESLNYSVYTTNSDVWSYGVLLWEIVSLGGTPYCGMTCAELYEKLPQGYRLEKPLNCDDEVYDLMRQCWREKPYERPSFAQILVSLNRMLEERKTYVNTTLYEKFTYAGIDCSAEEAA
Source text: Tie2-inhibitory activity of compounds of the present invention was quantified employing two Tie2 HTRF assay as described in the following paragraphs.
A recombinant fusion protein of GST and the intracellular domains of Tie-2, expressed in insect cells (Hi-5) and purified by Glutathion-Sepharose affinity chromatography was used as kinase. Alternatively, commercially available GST-Tie2-fusion protein (Upstate Biotechnology, Dundee, Scotland) can be used As substrate for the kinase reaction the biotinylated peptide biotin-Ahx-EPKDDAYPLYSDFG (C-terminus in amid form) was used which can be purchased e.g. from the company Biosynthan GmbH (Berlin-Buch, Germany). Detection of phosphorylated product is achieved specifically by a trimeric detection complex consisting of the phosphorylated substrate, streptavidin-XLent (SA-XLent) which binds to biotin, and Europium Cryptate-labeled anti-phosphotyrosine antibody PT66 which binds to phosphorylated tyrosine.
Tie-2 (3.5 ng/measurement point) was incubated for 60 min at 22° C. in the presence of 10 μM adenosine-tri-phosphate (ATP) and 1 μM substrate peptide (biotin-Ahx-EPKDDAYPLYSDFG-NH2) with different concentrations of test compounds (0 μM and concentrations in the range 0.001-20 μM) in 5 μl assay buffer [50 mM Hepes/NaOH pH 7, 10 mM MgCl2, 0.5 mM MnCl2, 1.0 mM dithiothreitol, 0.01% NP40, protease inhibitor mixture (“Complete w/o EDTA” from Roche, 1 tablet per 2.5 ml), 1% (v/v) dimethylsulfoxide]. The reaction was stopped by the addition of 5 μl of an aqueous buffer (25 mM Hepes/NaOH pH 7.5, 0.28% (w/v) bovine serum albumin) containing EDTA (90 mM) and the HTRF (Homogeneous Time Resolved Fluorescence) detection reagents streptavidine-XLent (0.2 μM, from Cis Biointernational, Marcoule, France) and PT66-Eu-Chelate (0.3 ng/μl; a europium-chelate labelled anti-phospho-tyrosine antibody from Perkin Elmer).
The resulting mixture was incubated 1 h at 22° C. to allow the binding of the biotinylated phosphorylated peptide to the streptavidine-XLent and the PT66-Eu-Chelate. Subsequently the amount of phosphorylated substrate peptide was evaluated by measurement of the resonance energy transfer from the PT66-Eu-Chelate to the streptavidine-XLent. Therefore, the fluorescence emissions at 620 nm and 665 nm after excitation at 350 nm was measured in a HTRF reader, e.g. a Rubystar (BMG Labtechnologies, Offenburg, Germany) or a Viewlux (Perkin-Elmer). The ratio of the emissions at 665 nm and at […] was taken as the measure for the amount of phosphorylated substrate peptide. The data were normalised (enzyme reaction without inhibitor=0% inhibition, all other assay components but no enzyme=100% inhibition) and IC50 values were calculated by a 4 parameter fit using an inhouse software.

| Structure (SMILES) | IC50 [nM] |
| --- | --- |
| Cc1cccc(NC(=O)Nc2ccc(-c3cc(C(C)(C)C)nc4[nH]ncc34)cc2)c1 [1.11, 1-[4-(6-tert-Butyl-1H-pyrazolo[3,4-b]pyridin-4-yl)-phenyl]-3-m-tolyl-urea] | 501 to 1000 |
| CN1CCN(Cc2ccc(NC(=O)Nc3ccc(-c4cc(C(C)(C)C)nc5[nH]ncc45)cc3)cc2C(F)(F)F)CC1 [1.15, 1-[4-(6-tert-Butyl-1H-pyrazolo[3,4-b]pyridin-4-yl)-phenyl]-3-[4-(4-methyl-piperazin-1-ylmethyl)-3-trifluoromethyl-phenyl]-urea] | < 501 |
| CCc1cccc(NC(=O)Nc2ccc(-c3cc(CN4CCOCC4)nc4c3cnn4C)cc2)c1 [3.4, 1-(3-Ethyl-phenyl)-3-[4-(1-methyl-6-morpholin-4-ylmethyl-1H-pyrazolo[3,4-b]pyridin-4-yl)-phenyl]-urea] | < 501 |
| CN1CCC(Oc2ccc(NC(=O)Nc3ccc(-c4ccnc5c4cnn5C)cc3)cc2C(F)(F)F)CC1 [1.23, 1-[4-(1-Methyl-piperidin-4-yloxy)-3-trifluoromethyl-phenyl]-3-[4-(1-methyl-1H-pyrazolo[3,4-b]pyridin-4-yl)-phenyl]-urea] | < 501 |
| CCc1cccc(NC(=O)Nc2ccc(-c3cc(C(C)(C)C)nc4[nH]ncc34)cc2)c1 [1.1, 1-[4-(6-tert-Butyl-1H-pyrazolo[3,4-b]pyridin-4-yl)-phenyl]-3-(3-ethylphenyl)-urea] | < 501 |
| Cn1ncc2c(-c3ccc(NC(=O)Nc4cccc(C(F)(F)F)c4)cc3)cc(CN3CCOCC3)nc21 [3.2, 1-[4-(1-Methyl-6-morpholin-4-ylmethyl-1H-pyrazolo[3,4-b]pyridin-4-yl)-phenyl]-3-(3-trifluoromethyl-phenyl)-urea] | < 501 |
| Cn1ncc2c(-c3ccc(NC(=O)Nc4cccc(C(F)(F)F)c4)cc3)ccnc21 [1.4, 1-[4-(1-Methyl-1H-pyrazolo[3,4-b]pyridin-4-yl)-phenyl]-3-(3-trifluoromethyl-phenyl)-urea] | < 501 |
| Cn1ncc2c(-c3ccc(NC(=O)Nc4cccc(C(F)(F)F)c4)cc3)cc(C3CCCCC3)nc21 [1.38, 1-[4-(6-Cyclohexyl-1-methyl-1H-pyrazolo[3,4-b]pyridin-4-yl)-phenyl]-3-(3-trifluoromethyl-phenyl)-urea] | < 501 |
| Cc1cc(-c2ccc(NC(=O)Nc3ccc(F)c(C(F)(F)F)c3)cc2)c2cnn(C)c2n1 [2.5, 1-[4-(1,6-Dimethyl-1H-pyrazolo[3,4-b]pyridin-4-yl)-phenyl]-3-(4-fluoro-3-trifluoromethyl-phenyl)-urea] | 501 to 1000 |
| Cc1ccc(F)c(NC(=O)Nc2ccc(-c3ccnc4[nH]ncc34)cc2)c1 [1.22, 1-(2-Fluoro-5-methyl-phenyl)-3-[4-(1H-pyrazolo[3,4-b]pyridin-4-yl)-phenyl]-urea] | 501 to 1000 |
| CN1CCN(Cc2ccc(NC(=O)Nc3ccc(-c4ccnc5[nH]ncc45)cc3)cc2C(F)(F)F)CC1 [1.33, 1-[4-(4-Methyl-piperazin-1-yl-methyl)-3-trifluoromethyl-phenyl]-3-[4-(1H-pyrazolo[3,4-b]pyridin-4-yl)-phenyl]-urea] | < 501 |
| Cc1cc(-c2ccc(NC(=O)Nc3cc(F)cc(C(F)(F)F)c3)cc2)c2cnn(C)c2n1 [2.4, 1-[4-(1,6-Dimethyl-1H-pyrazolo[3,4-b]pyridin-4-yl)-phenyl]-3-(3-fluoro-5-trifluoromethyl-phenyl)-urea] | < 501 |
| COc1ccc(C(F)(F)F)cc1NC(=O)Nc1ccc(-c2cc(C)nc3c2cnn3C)cc1 [2.7, 1-[4-(1,6-Dimethyl-1H-pyrazolo[3,4-b]pyridin-4-yl)-phenyl]-3-(2-methoxy-5-trifluoromethyl-phenyl)-urea] | < 501 |
| Cn1ncc2c(-c3ccc(NC(=O)Nc4cccc(C(F)(F)F)c4)cc3)cc(C3CCC3)nc21 [1.37, 1-[4-(6-Cyclobutyl-1-methyl-1H-pyrazolo[3,4-b]pyridin-4-yl)-phenyl]-3-(3-trifluoromethyl-phenyl)-urea] | < 501 |
| Cc1cc(-c2ccc(NC(=O)Nc3cccc(C(F)(F)F)c3)cc2)c2cn[nH]c2n1 [1.18, 1-[4-(6-Methyl-1H-pyrazolo[3,4-b]pyridin-4-yl)-phenyl]-3-(3-trifluoromethyl-phenyl)-urea] | < 501 |

Results, then the compound that gave them:

| IC50 [nM] | Structure (SMILES) |
| --- | --- |
| < 501 | Cc1ccc(F)c(NC(=O)Nc2ccc(-c3cc(C4(C(=O)N(C)C)CC4)nc4c3cnn4C)cc2)c1 [1.29, 1-(4-{4-[3-(2-Fluoro-5-methyl-phenyl)-ureido]-phenyl}-1-methyl-1H-pyrazolo[3,4-b]pyridin-6-yl)-cyclopropane-carboxylic acid dimethylamide] |
| < 501 | Cn1ncc2c(-c3ccc(NC(=O)Nc4cc(C(F)(F)F)ccc4F)cc3)ccnc21 [1.8, 1-(2-Fluoro-5-trifluoromethyl-phenyl)-3-[4-(1-methyl-1H-pyrazolo[3,4-b]-pyridin-4-yl)-phenyl]-urea] |
| < 501 | CC(C)c1cc(-c2ccc(NC(=O)Nc3cccc(C(F)(F)F)c3)cc2)c2cnn(C)c2n1 [1.3, 1-[4-(6-Isopropyl-1-methyl-1H-pyrazolo[3,4-b]pyridin-4-yl)-phenyl]-3-(3-trifluoromethyl-phenyl)-urea] |
| < 501 | CN1CCN(Cc2ccc(NC(=O)Nc3ccc(-c4ccnc5c4cnn5C)cc3)cc2C(F)(F)F)CC1 [1.24, 1-[4-(4-Methyl-piperazin-1-ylmethyl)-3-trifluoromethyl-phenyl]-3-[4-(1-methyl-1H-pyrazolo[3,4-b]pyridin-4-yl)-phenyl]-urea] |
| < 501 | CC(C)c1cc(-c2ccc(NC(=O)Nc3cccc(C(F)(F)F)c3)cc2)c2cn[nH]c2n1 [1.2, 1-[4-(6-Isopropyl-1H-pyrazolo[3,4-b]pyridin-4-yl)-phenyl]-3-(3-trifluoromethyl-phenyl)-urea] |
| < 501 | CN(C)C(=O)C1(c2cc(-c3ccc(NC(=O)Nc4cccc(C(F)(F)F)c4)cc3)c3cnn(C)c3n2)CC1 [1.26, 1-(1-Methyl-4-{4-[3-(3-trifluoromethyl-phenyl)-ureido]-phenyl}-1H-pyrazolo[3,4-b]pyridin-6-yl)-cyclopropane-carboxylic acid dimethylamide] |
| < 501 | O=C(Nc1ccc(-c2ccnc3[nH]ncc23)cc1)Nc1cccc(C(F)(F)F)c1 [1.20, 1-[4-(1H-Pyrazolo[3,4-b]pyridin-4-yl)-phenyl]-3-(3-trifluoromethyl-phenyl)-urea] |
| < 501 | Cc1ccc(F)c(NC(=O)Nc2ccc(-c3ccnc4c3cnn4C)cc2)c1 [1.7, 1-(2-Fluoro-5-methyl-phenyl)-3-[4-(1-methyl-1H-pyrazolo[3,4-b]pyridin-4-yl)-phenyl]-urea] |
| < 501 | Cc1ccc(F)c(NC(=O)Nc2ccc(-c3cc(CN4CCOCC4)nc4c3cnn4C)cc2)c1 [3.5, 1-(2-Fluoro-5-methyl-phenyl)-3-[4-(1-methyl-6-morpholin-4-ylmethyl-1H-pyrazolo[3,4-b]pyridin-4-yl)-phenyl]-urea] |
